Laboratory results published in patent US20170119726A1, “Stabilized Cabazitaxel Formulations” (Cipla (UK) Limited, priority 2015, published 2017).

Legend:
[1] = Study 4: in-life observations (mortality, clinical signs, body weight); details: both treatment groups, 12 mg/kg IV on days 1, 7, 13, 19, nude mice
Protocol: (§1) DU145 cells (5×106) at their exponential growth phase were inoculated subcutaneously on the dorsal right flank in athymic female mice. […] Animals in the vehicle control group received 5 w/v % dextrose solution. Growth of prostate xenografts (tumor volume) and whole body weights were recorded twice weekly (on days 1, 3, 5, 8, 10, 15, 17, 19) during treatment period. Animals were also monitored for clinical signs and mortality everyday throughout the study. On the day of sacrifice (day 19), blood and tumors were collected from set of animals (4 animals in each time point) at stipulated time points (1, 2, 3, and 4 h post-dose). At the end of blood collection, animals were humanely euthanized by cervical dislocation and tumor in toto was harvested from all the animals, transferred to pre-labeled microcentrifuge tubes before flash freezing in liquid nitrogen.

[2] = mouse, in vivo, iv, 12 mg/kg
Protocol: as §1

CO[C@H]1C(=O)[C@]2(C)[C@@H](OC)C[C@H]3OC[C@@]3(OC(C)=O)[C@H]2[C@H](OC(=O)c2ccccc2)[C@]2(O)C[C@H](OC(=O)[C@H](O)[C@@H](NC(=O)OC(C)(C)C)c3ccccc3)C(C)=C1C2(C)C [Cabazitaxel, (2α,5β,7β,10β, 13α)-4-acetoxy-13-({(2R,3S)-3[(tertbutoxycarbonyl)amino]-2-hydroxy-3-phenylpropanoyl}-oxy)-1-hydroxy-7,10-dimethoxy-9-oxo-5,20-epoxytax-11-en-2-yl benzoate]
mortality [1]: no mortality was observed | tolerability [2]: well tolerated
